The target in experiment [1] is T1, rabbit reticulocyte 15-LO (Oryctolagus cuniculus, UniProt P12530).
T1 construct: rabbit reticulocyte 15-LO; from tissue; host or cells: rabbit reticulocytes
T1 sequence (P12530 1-663): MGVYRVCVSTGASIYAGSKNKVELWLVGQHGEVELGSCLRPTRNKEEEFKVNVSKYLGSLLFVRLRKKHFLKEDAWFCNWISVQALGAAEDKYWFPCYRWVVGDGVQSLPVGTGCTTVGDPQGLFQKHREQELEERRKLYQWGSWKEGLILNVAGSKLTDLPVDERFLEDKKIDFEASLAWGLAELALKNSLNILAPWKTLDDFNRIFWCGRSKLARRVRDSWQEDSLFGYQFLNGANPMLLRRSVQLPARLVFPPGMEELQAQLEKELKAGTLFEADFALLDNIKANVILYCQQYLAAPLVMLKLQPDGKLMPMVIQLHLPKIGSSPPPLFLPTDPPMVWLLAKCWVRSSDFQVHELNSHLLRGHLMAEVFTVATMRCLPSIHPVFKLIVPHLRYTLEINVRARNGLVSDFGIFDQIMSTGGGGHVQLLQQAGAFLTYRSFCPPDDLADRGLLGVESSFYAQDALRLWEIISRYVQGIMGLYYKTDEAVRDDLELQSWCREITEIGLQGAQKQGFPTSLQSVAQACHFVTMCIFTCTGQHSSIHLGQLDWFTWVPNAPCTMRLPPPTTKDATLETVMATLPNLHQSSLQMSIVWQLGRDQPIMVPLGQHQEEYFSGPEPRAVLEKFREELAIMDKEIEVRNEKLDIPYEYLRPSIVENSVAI
Description: 15-LO inhibition, rabbit reticulocyte 15-LO with linoleic acid substrate, HPLC method of Auerbach et al. The class given is biochemical. As to the method:
Two in vitro assays were utilized, both utilizing rabbit reticulocyte 15-LO, and linoleic acid as substrate, to enzymatically produce a peroxide oxidation product known as 13(S)-HPODE. N-Benzoyl leucomethylene blue was utilized as a calorimetric reagent for detection and quantification of the peroxide formation. Also, HPLC was utilized to quantify the oxidation following incubation at 4° C. for 10 minutes.

A further experiment deals with T2, 5-LO enzyme (Homo sapiens, UniProt P09917).
T2 sequence (P09917 1-674): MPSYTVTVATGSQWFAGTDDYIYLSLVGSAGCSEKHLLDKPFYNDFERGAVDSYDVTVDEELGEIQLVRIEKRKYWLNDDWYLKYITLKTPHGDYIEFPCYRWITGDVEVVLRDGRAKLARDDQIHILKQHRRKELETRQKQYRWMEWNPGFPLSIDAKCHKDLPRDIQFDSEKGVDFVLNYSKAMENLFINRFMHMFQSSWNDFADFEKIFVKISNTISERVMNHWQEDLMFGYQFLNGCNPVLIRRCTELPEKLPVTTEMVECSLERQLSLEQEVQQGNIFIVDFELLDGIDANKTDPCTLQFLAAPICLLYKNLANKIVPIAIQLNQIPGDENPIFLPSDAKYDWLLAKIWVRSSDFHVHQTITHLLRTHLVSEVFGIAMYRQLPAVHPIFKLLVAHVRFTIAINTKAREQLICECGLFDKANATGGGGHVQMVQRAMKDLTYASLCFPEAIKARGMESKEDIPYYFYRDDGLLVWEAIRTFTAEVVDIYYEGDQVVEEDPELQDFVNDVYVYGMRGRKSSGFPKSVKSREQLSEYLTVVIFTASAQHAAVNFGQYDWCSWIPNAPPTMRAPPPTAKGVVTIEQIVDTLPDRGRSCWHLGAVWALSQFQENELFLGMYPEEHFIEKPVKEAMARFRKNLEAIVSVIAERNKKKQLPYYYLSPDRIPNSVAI
As to the kind of experiment: 5-LO enzyme inhibition. The experiment is classed as biochemical.

The test system of experiment [2] is atherosclerotic lesions in cholesterol-fed New Zealand White rabbits. Description: Atherosclerosis in cholesterol-fed rabbits, 12-week study (aortic lesion coverage, aortic cholesterol content). Conditions: 350 mg/kg/day in food, 12 weeks. The experiment is classed as in vivo, rabbit. The source says: As further evidence of 15-LO inhibitors being effective to prevent and treat inflammation and atherosclerosis in animals, one representative compound has been extensively evaluated in cholesterol-fed rabbits over a 12-week period.
Specific pathogen-free New Zealand White rabbits (≈2.5 kg) were obtained from Myrtle's Rabbitry (Thompson Station, Tenn.). The animals were fed a standard laboratory diet (Ralston Purina, St. Louis, Mo.) and were allowed to become acclimatized for 7 days before initiation of the study, at which time two groups of rabbits (n=10 each) were begun on a diet enriched with cholesterol (0.25% wt/wt), peanut oil (3% wt/wt), and coconut oil (3% wt/wt), with a small amount of applesauce mixed into the food to enhance palatability. This diet was designed to produce a modest hypercholesterolemic response. The control group received no additional treatment. […] Rabbits were permitted access to 40 g of food at ≈12 hour intervals via automated feeders, and diet intake was monitored every day such that the animals received 175 mg/kg/bid. Water was available ad libitum. Body weights were measured at regular intervals throughout the 12-week study. Blood samples were obtained at the indicated intervals for determination of hematocrit and plasma lipid concentrations.
Rabbits were euthanized by an overdose of sodium pentobarbital (150 mg/kg^-1) and exsanguinated via the abdominal aorta. Aortas were removed from the valve to the ileal bifurcation, opened to expose the intima, and photographed with a Polaroid camera. By use of these photographs, the areas of grossly discernible atherosclerosis were manually integrated on a digitizing pad and calculated with SigmaScan (Jandel Scientific). Aortas were visually subdivided into three areas: arch (aortic valve to first intercostal), thoracic aorta (first intercostal to diaphragm area), and abdominal aorta (diaphragm to ileal bifurcation). In addition to extracting aortas, body tissues were surveyed for indications of adverse reactions.
Weighed segments of each aortic region (arch, thoracic, and abdominal) were extracted. Esterified and unesterified cholesterol content of aortic tissue were determined by gas chromatography using 5-α-cholestane as an internal standard.

[3] abbreviates: Table 1, HPLC method, read-out: 15-LO IC50.
Setting [4] is: Table 1, read-out: 5-LO (concentration to inhibit 50% of 5-LO activity).
[5] abbreviates: Table 2, benzimidazoles, read-out: 15-LO IC50.
[6] abbreviates: Table 2, benzimidazoles, read-out: 5-LO IC50.
Where [7] appears, read: Table 4, indoles, read-out: 15-LO IC50.
The mark [8] stands for this setting: Table 4, indoles, read-out: 5-LO IC50.
Setting [9] is: read-out: 5-LO inhibitory activity IC50.

Where two headings read alike, the source gives them in different places.

The values that follow come from patent publication US5972980A, “Method for treating and preventing inflammation and atherosclerosis” (Warner-Lambert Company, priority 1999, dated 1999).

With `COc1ccc2c(c1)[nH]c1c3ccccc3[s+]cc21`, the IC50 in experiment [1] (setting [3]) came out at 26 µM.

Regarding `COc1ccc2[nH]c3c4ccccc4[s+]cc3c2c1`, the IC50 was 0.7 µM in experiment [1] (setting [3]) and > 9.6 µM at 5-LO enzyme (setting [4]).

Consider `c1ccc2c(c1)[nH]c1c3cc4c(cc3[s+]cc21)CCCC4`, for which the results for the IC50 (in experiment [1] (setting [3]); on 5-LO enzyme (setting [4])) were 0.5 to 2 µM and > 32 µM, respectively.

Regarding `COc1ccc2c3c([nH]c2c1)-c1ccccc1SC3`, the IC50 is 4.5 µM in experiment [1] (setting [3]) and > 50 µM at 5-LO enzyme (setting [4]).

Take `COc1ccc2[nH]c3c(c2c1)CSc1ccccc1-3`: the IC50 in experiment [1] (setting [3]) was 0.6 µM; at 5-LO enzyme (setting [4]), > 10 µM.

For `COc1ccc2[nH]c3c(c2c1)COc1ccccc1-3`, the IC50 was 4 µM in experiment [1] (setting [3]) and > 50 µM on 5-LO enzyme (setting [4]).

Turning to `COc1ccc2[nH]c3c4ccccc4ncc3c2c1`, the IC50 in experiment [1] (setting [3]) was > 25 µM.

For `COc1ccc2[nH]c3c(c2c1)CCc1ccccc1-3`, in experiment [1] (setting [3]), the IC50 is > 25 µM.

Regarding `Clc1ccc2[nH]c(-c3ccccc3)nc2c1`, the IC50 is 0.7 µM in experiment [1] (setting [5]) and > 10 µM at 5-LO enzyme (setting [6]).

With `O=C(Nc1cccc(Cl)c1)Sc1c[nH]c2ccccc12`, the figures for the IC50 (in experiment [1] (setting [7]); at 5-LO enzyme (setting [8])) were 4 µM and > 10 µM, respectively.

Take `O=C(Cc1c[nH]c2ccccc12)Nc1ccccc1`: the IC50 in experiment [1] (setting [7]) was 1.5 µM; on 5-LO enzyme (setting [8]) it was > 10 µM.

For the compound `Clc1ccc2c(c1)Nc1c(ccc3ccccc13)S2`, the IC50 in experiment [1] (Table 5, read-out: 15-LO IC50) was 2 µM; at 5-LO enzyme (Table 5, read-out: 5-LO IC50) it was > 30 µM.

Consider `c1ccc2c(c1)ccc1c3ccccc3[nH]c21`, for which the IC50 in experiment [1] was 1.5 µM; at 5-LO enzyme (Table 5, read-out: 5-LO IC50), > 10 µM.

Regarding `Clc1ccc(-c2nc3ccc(Cl)cc3[nH]2)cc1` [2-(4-chlorophenyl)-5-chlorobenzimidazole], in experiment [1] (15-LO versus 5-LO), the “15-LO to 5-LO ratio of activities” value is given as “greater than 10”. Moreover, the IC50 in experiment [1] (setting [5]) is 0.65 µM; on 5-LO enzyme (setting [6]), > 10 µM; on 5-LO enzyme (setting [9]), > 10 µM.

Turning to `CCCCCC#CCC#CCC#CCC#CCCCC(=O)O` [CH3 (CH2)3 (CH2 --C≡C--)4 (CH2)3 --COOH], the IC50 in experiment [1] (Table 5, read-out: 15-LO IC50) was 0.75 µM; at 5-LO enzyme (Table 5, read-out: 5-LO IC50), > 10 µM.

In the case of `c1ccc2c(c1)SCc1c-2[nH]c2ccccc12` [Compound A, 6,11-dihydro[1]benzothiopyrano[4,3-b]-indole], the IC50 at 5-LO enzyme (setting [4]) and at 5-LO enzyme (setting [9]) was > 100 µM in each case. The “cholesterol esters, abdominal region” value in experiment [2] (abdominal (control about 0.6)) is “no detectable cholesterol esters”. The “lesion coverage, abdominal region” value in experiment [2] (abdominal aorta (control 5%)) is on record as “about 1%”. Moreover, the “unesterified cholesterol, thoracic and abdominal regions” value in experiment [2] (about the same as control) was 0.7-0.8 mg/g tissue wet weight. Besides, the “lesion coverage of intima, arch area” value in experiment [2] (aortic arch (control about 15%)) was “no lesion coverage”. The “unesterified cholesterol, arch region” value in experiment [2] (arch (control about 1.4)) is reported as “about 0.8 mg/g”. Besides, in experiment [2] (arch (control about 2)), the “cholesterol esters, arch region” value was “no detectable cholesterol esters”. The “cholesterol esters, thoracic region” value in experiment [2] (thoracic (control none)) is “no detectable cholesterol esters”. The “lesions, thoracic region” value in experiment [2] (thoracic aorta) is “No detectable lesions”.

Take `Cc1ccc2[s+]cc3c4ccccc4[nH]c3c2c1` [drawing 19 (R2=H, R3=H, R4=CH3, R5=H, R8=H)]: in experiment [1] (setting [3]), the IC50 was 1.9 µM.

Turning to `Clc1ccc2[s+]cc3c4ccccc4[nH]c3c2c1` [drawing 19 (R2=H, R3=H, R4=Cl, R5=H, R8=H)], the IC50 in experiment [1] (setting [3]) turned out to be 12 µM.

Consider `Cc1ccc2c(c1)[s+]cc1c3ccccc3[nH]c21` [drawing 19 (R2=H, R3=H, R4=H, R5=CH3, R8=H)], for which the IC50 in experiment [1] (setting [3]) is 1 to 4 µM.

Consider `Cc1[s+]c2ccccc2c2[nH]c3ccccc3c12` [drawing 19 (R2=H, R3=H, R4=H, R5=H, R8=CH3)], for which the IC50 in experiment [1] (setting [3]) is > 25 µM.

As for `c1ccc2c(c1)[nH]c1c3ccccc3[s+]cc21` [drawing 19 (R2=H, R3=H, R4=H, R5=H, R8=H)], the IC50 in experiment [1] (setting [3]) lay within 1 to 4 µM.

Turning to `O=[N+]([O-])c1ccc2[s+]cc3c4ccccc4[nH]c3c2c1` [drawing 19 (R2=H, R3=H, R4=NO2, R5=H, R8=H)], the IC50 in experiment [1] (setting [3]) was 0.48 µM; at 5-LO enzyme (setting [4]) it was > 10 µM.

For the compound `c1ccc2c(c1)c[s+]c1c3ccccc3[nH]c21` [drawing 20 (R2=H, R3=H, R4=H, R5=H, R8=H)], the IC50 in experiment [1] (setting [3]) was determined as 3.8 µM; at 5-LO enzyme (setting [4]), 22 µM.

Take `c1csc(-c2csc(-c3nc4ccccc4[nH]3)n2)c1` [drawing 26 (R2=H, R3=H, R10=H, R11=drawing 27)]: the IC50 in experiment [1] (setting [5]) was 1.5 µM; on 5-LO enzyme (setting [6]), > 10 µM.

In the case of `COc1ccc(/C=C/C(=O)c2cccs2)cc1` [drawing 31 (R2=H, R3=4-OCH3, Het=drawing 32)], the IC50 in experiment [1] (Table 3, styrenes, read-out: 15-LO IC50) is 1.6 µM; at 5-LO enzyme (Table 3, styrenes, read-out: 5-LO IC50), > 10 µM.
